Results: patent US10906873B2, “Substituted cyclic amides as herbicides” (FMC Corporation, priority 2015, dated 2021)

Tests used:
Format in all cases: in vivo
[1] = test system: sedge, umbrella (small-flower umbrella sedge, Cyperus difformis); assay: Test B flooded paddy test, sedge, umbrella; details: Flood, scale of 0 to 100 where 0 is no effect and 100 is complete control, 13 to 15 d
Experimental: (§1) Plant species in the flooded paddy test selected from rice (Oryza sativa), sedge, umbrella (small-flower umbrella sedge, Cyperus difformis), ducksalad (Heteranthera limosa), and barnyardgrass (Echinochloa crus-galli) were grown to the 2-leaf stage for testing. At time of treatment, test pots were flooded to 3 cm above the soil surface, treated by application of test compounds directly to the paddy water, and then maintained at that water depth for the duration of the test. Treated plants and controls were maintained in a greenhouse for 13 to 15 d, after which time all species were compared to controls and visually evaluated. Plant response ratings, summarized in Table B, are based on a scale of 0 to 100 where 0 is no effect and 100 is complete control. A dash (-) response means no test result.

corn (Zea mays) = assay: Test A postemergence, corn; details: 0 to 100 scale
Source text: (§2) Seeds of plant species selected from barnyardgrass (Echinochloa crus-galli), crabgrass (large crabgrass, Digitaria sanguinalis), kochia (Kochia scoparia), ragweed (common ragweed, Ambrosia elatior), morningglory (Ipomoea spp.), velvetleaf (Abutilon theophrasti), ryegrass, It. (Italian ryegrass, Lolium multiflorum), foxtail, giant (giant foxtail, Setaria faberii), wheat (Triticum aestivum), corn (Zea mays), and pigweed (Amaranthus retroflexus), were planted into a blend of loam soil and sand and treated preemergence with a directed soil spray using test chemicals formulated in a non-phytotoxic solvent mixture which included a surfactant. At the same time, plants selected from these crop and weed species and also blackgrass (Alopecurus myosuroides), and galium (catchweed bedstraw, Galium aparine), were planted in pots containing the same blend of loam soil and sand and treated with postemergence applications of test chemicals formulated in the same manner. Plants ranged in height from 2 to 10 cm and were in the one- to two-leaf stage for the postemergence treatment. Treated plants and untreated controls were maintained in a greenhouse for approximately 10 d, after which time all treated plants were compared to untreated controls and visually evaluated for injury. Plant response ratings, summarized in Table A, are based on a 0 to 100 scale where 0 is no effect and 100 is complete control. A dash (-) response means no test result.

kochia (Kochia scoparia) [2] = assay: Test A postemergence, kochia; details: 0 to 100 scale
Source text: as §2

[3] = test system: pigweed (Amaranthus retroflexus); assay: Test A postemergence, pigweed; details: 0 to 100 scale
Source text: as §2

[4] = test system: barnyardgrass (Echinochloa crus-galli); assay: Test A postemergence, barnyardgrass; details: 0 to 100 scale
Source text: as §2

[5] = test system: barnyardgrass (Echinochloa crus-galli); assay: Test A preemergence, barnyardgrass; details: 0 to 100 scale
Source text: as §2

[6] = test system: ryegrass, It. (Italian ryegrass, Lolium multiflorum); assay: Test A postemergence, ryegrass, It.; details: 0 to 100 scale
Source text: as §2

[7] = test system: galium (catchweed bedstraw, Galium aparine); assay: Test A postemergence, galium; details: 0 to 100 scale
Source text: as §2

[8] = test system: ryegrass, It. (Italian ryegrass, Lolium multiflorum); assay: Test A preemergence, ryegrass, It.; details: 0 to 100 scale
Source text: as §2

[9] = test system: barnyardgrass (Echinochloa crus-galli); assay: Test B flooded paddy test, barnyardgrass; details: Flood, scale of 0 to 100 where 0 is no effect and 100 is complete control, 13 to 15 d
Experimental: as §1

[10] = test system: wheat (Triticum aestivum); assay: Test A postemergence, wheat; details: 0 to 100 scale
Source text: as §2

[11] = test system: foxtail, giant (giant foxtail, Setaria faberii); assay: Test A postemergence, foxtail, giant; details: 0 to 100 scale
Source text: as §2

[12] = test system: ragweed (common ragweed, Ambrosia elatior); assay: Test A preemergence, ragweed; details: 0 to 100 scale
Source text: as §2

[13] = test system: blackgrass (Alopecurus myosuroides); assay: Test A postemergence, blackgrass; details: 0 to 100 scale
Source text: as §2

[14] = test system: ducksalad (Heteranthera limosa); assay: Test B flooded paddy test, ducksalad; details: Flood, scale of 0 to 100 where 0 is no effect and 100 is complete control, 13 to 15 d
Experimental: as §1

kochia (Kochia scoparia) [15] = assay: Test A preemergence, kochia; details: 0 to 100 scale
Source text: as §2

[16] = test system: ragweed (common ragweed, Ambrosia elatior); assay: Test A postemergence, ragweed; details: 0 to 100 scale
Source text: as §2

[17] = test system: foxtail, giant (giant foxtail, Setaria faberii); assay: Test A preemergence, foxtail, giant; details: 0 to 100 scale
Source text: as §2

rice (Oryza sativa) = assay: Test B flooded paddy test, rice; details: Flood, scale of 0 to 100 where 0 is no effect and 100 is complete control, 13 to 15 d
Experimental: as §1

[18] = test system: pigweed (Amaranthus retroflexus); assay: Test A preemergence, pigweed; details: 0 to 100 scale
Source text: as §2

Structure (SMILES)	Plant response rating, Corn (corn (Zea mays); 125 g ai/ha)	Plant response rating, Corn (corn (Zea mays); 500 g ai/ha)	Plant response rating, Kochia (kochia (Kochia scoparia) [2]; 125 g ai/ha)	Plant response rating, Kochia (kochia (Kochia scoparia) [2]; 500 g ai/ha)	Plant response rating, Pigweed ([3]; 125 g ai/ha)	Plant response rating, Pigweed ([3]; 500 g ai/ha)	Plant response rating, Barnyardgrass ([4]; 125 g ai/ha)	Plant response rating, Barnyardgrass ([4]; 500 g ai/ha)	Plant response rating, Barnyardgrass ([5]; 125 g ai/ha)	Plant response rating, Barnyardgrass ([5]; 500 g ai/ha)	Plant response rating, Ryegrass, It. ([6]; 125 g ai/ha)	Plant response rating, Ryegrass, It. ([6]; 500 g ai/ha)	Plant response rating, Galium ([7]; 125 g ai/ha)	Plant response rating, Galium ([7]; 500 g ai/ha)	Plant response rating, Ryegrass, It. ([8]; 125 g ai/ha)	Plant response rating, Ryegrass, It. ([8]; 500 g ai/ha)	Plant response rating, Wheat ([10]; 125 g ai/ha)	Plant response rating, Wheat ([10]; 500 g ai/ha)	Plant response rating, Foxtail, Giant ([11]; 125 g ai/ha)	Plant response rating, Foxtail, Giant ([11]; 500 g ai/ha)	other results
O=C1NCC(Cc2cccc(F)c2F)C1C(=O)Nc1ccccc1C(F)(F)F (stereo not drawn) [Compound 10]	0	0	0	0	0	0	0	0	0	0	0	0	0	0	0	0	0	0	0	0	Plant response rating, Sedge, Umbrella ([1]; 500 g ai/ha): 0; Plant response rating, Barnyardgrass ([9]; 500 g ai/ha): 0; Plant response rating, Ragweed ([12]; 125 g ai/ha): 0; Plant response rating, Ragweed ([12]; 500 g ai/ha): 0; Plant response rating, Blackgrass ([13]; 125 g ai/ha): 0; Plant response rating, Blackgrass ([13]; 500 g ai/ha): 0; Plant response rating, Ducksalad ([14]; 500 g ai/ha): 0; Plant response rating, Kochia (kochia (Kochia scoparia) [15]; 125 g ai/ha): 0; Plant response rating, Kochia (kochia (Kochia scoparia) [15]; 500 g ai/ha): 0; Plant response rating, Ragweed ([16]; 125 g ai/ha): 0; Plant response rating, Ragweed ([16]; 500 g ai/ha): 0; Plant response rating, Foxtail, Giant ([17]; 125 g ai/ha): 0; Plant response rating, Foxtail, Giant ([17]; 500 g ai/ha): 0; Plant response rating, Rice (rice (Oryza sativa); 500 g ai/ha): 0; Plant response rating, Pigweed ([18]; 125 g ai/ha): 0; Plant response rating, Pigweed ([18]; 500 g ai/ha): 0
O=C1NCC(Cc2cccc(C(F)(F)F)c2)C1C(=O)Nc1cccc(F)c1F (stereo not drawn) [Compound 11]	0	0	0	0	0	0	0	0	0	0	0	0	0	0	0	0	0	0	0	0	Plant response rating, Sedge, Umbrella ([1]; 500 g ai/ha): 0; Plant response rating, Barnyardgrass ([9]; 500 g ai/ha): 0; Plant response rating, Ragweed ([12]; 125 g ai/ha): 0; Plant response rating, Ragweed ([12]; 500 g ai/ha): 0; Plant response rating, Blackgrass ([13]; 125 g ai/ha): 0; Plant response rating, Blackgrass ([13]; 500 g ai/ha): 0; Plant response rating, Ducksalad ([14]; 500 g ai/ha): 0; Plant response rating, Kochia (kochia (Kochia scoparia) [15]; 125 g ai/ha): 0; Plant response rating, Kochia (kochia (Kochia scoparia) [15]; 500 g ai/ha): 0; Plant response rating, Ragweed ([16]; 125 g ai/ha): 0; Plant response rating, Ragweed ([16]; 500 g ai/ha): 0; Plant response rating, Foxtail, Giant ([17]; 125 g ai/ha): 0; Plant response rating, Foxtail, Giant ([17]; 500 g ai/ha): 0; Plant response rating, Rice (rice (Oryza sativa); 500 g ai/ha): 0; Plant response rating, Pigweed ([18]; 125 g ai/ha): 0; Plant response rating, Pigweed ([18]; 500 g ai/ha): 0
O=C1NCC(Cc2ccc(F)c(F)c2)C1C(=O)Nc1cccc(F)c1F (stereo not drawn) [Compound 12]	0	0	0	0	0	0	0	0	0	60	0	0	0	0	0	0	0	0	0	0	Plant response rating, Sedge, Umbrella ([1]; 500 g ai/ha): 0; Plant response rating, Barnyardgrass ([9]; 500 g ai/ha): 0; Plant response rating, Ragweed ([12]; 125 g ai/ha): 0; Plant response rating, Ragweed ([12]; 500 g ai/ha): 0; Plant response rating, Blackgrass ([13]; 125 g ai/ha): 0; Plant response rating, Blackgrass ([13]; 500 g ai/ha): 0; Plant response rating, Ducksalad ([14]; 500 g ai/ha): 0; Plant response rating, Kochia (kochia (Kochia scoparia) [15]; 125 g ai/ha): 0; Plant response rating, Kochia (kochia (Kochia scoparia) [15]; 500 g ai/ha): 0; Plant response rating, Ragweed ([16]; 125 g ai/ha): 0; Plant response rating, Ragweed ([16]; 500 g ai/ha): 0; Plant response rating, Foxtail, Giant ([17]; 125 g ai/ha): 0; Plant response rating, Foxtail, Giant ([17]; 500 g ai/ha): 60; Plant response rating, Rice (rice (Oryza sativa); 500 g ai/ha): 0; Plant response rating, Pigweed ([18]; 125 g ai/ha): 0; Plant response rating, Pigweed ([18]; 500 g ai/ha): 0
O=C(CCC1CNC(=O)C1C(=O)Nc1ccccc1F)Nc1ccc(F)cc1 (stereo not drawn) [Compound 15]	0	0	0	0	0	0	0	0	0	0	0	0	0	0	0	0	0	0	0	0	Plant response rating, Sedge, Umbrella ([1]; 500 g ai/ha): 0; Plant response rating, Barnyardgrass ([9]; 500 g ai/ha): 0; Plant response rating, Ragweed ([12]; 125 g ai/ha): 0; Plant response rating, Ragweed ([12]; 500 g ai/ha): 0; Plant response rating, Blackgrass ([13]; 125 g ai/ha): 0; Plant response rating, Blackgrass ([13]; 500 g ai/ha): 0; Plant response rating, Ducksalad ([14]; 500 g ai/ha): 70; Plant response rating, Kochia (kochia (Kochia scoparia) [15]; 125 g ai/ha): 0; Plant response rating, Kochia (kochia (Kochia scoparia) [15]; 500 g ai/ha): 0; Plant response rating, Ragweed ([16]; 125 g ai/ha): 0; Plant response rating, Ragweed ([16]; 500 g ai/ha): 0; Plant response rating, Foxtail, Giant ([17]; 125 g ai/ha): 0; Plant response rating, Foxtail, Giant ([17]; 500 g ai/ha): 0; Plant response rating, Rice (rice (Oryza sativa); 500 g ai/ha): 0; Plant response rating, Pigweed ([18]; 125 g ai/ha): 0; Plant response rating, Pigweed ([18]; 500 g ai/ha): 0
O=C1NCC(C#Cc2ccc(F)cc2)C1C(=O)Nc1cccc(F)c1F (stereo not drawn) [Compound 16]	0	0	0	0	0	0	40	60	20	90	0	0	0	0	0	0	0	0	20	40	Plant response rating, Sedge, Umbrella ([1]; 250 g ai/ha): 0; Plant response rating, Barnyardgrass ([9]; 250 g ai/ha): 0; Plant response rating, Ragweed ([12]; 125 g ai/ha): 0; Plant response rating, Ragweed ([12]; 500 g ai/ha): 0; Plant response rating, Blackgrass ([13]; 125 g ai/ha): 0; Plant response rating, Blackgrass ([13]; 500 g ai/ha): 0; Plant response rating, Ducksalad ([14]; 250 g ai/ha): 70; Plant response rating, Kochia (kochia (Kochia scoparia) [15]; 125 g ai/ha): 0; Plant response rating, Kochia (kochia (Kochia scoparia) [15]; 500 g ai/ha): 0; Plant response rating, Ragweed ([16]; 125 g ai/ha): 0; Plant response rating, Ragweed ([16]; 500 g ai/ha): 0; Plant response rating, Foxtail, Giant ([17]; 125 g ai/ha): 60; Plant response rating, Foxtail, Giant ([17]; 500 g ai/ha): 90; Plant response rating, Rice (rice (Oryza sativa); 250 g ai/ha): 0; Plant response rating, Pigweed ([18]; 125 g ai/ha): 0; Plant response rating, Pigweed ([18]; 500 g ai/ha): 0
